{
  "source": "patent US20220370486A1",
  "about": "“COMBINATION TREATMENT OF SYSTEMIC FUNGAL INFECTIONS” (The Board of Trustees of the University of Illinois, priority 2019, published 2022)",
  "key": {"C. auris 1081160": {"test_system": "C. auris 1081160", "experiment": "Checkerboard broth microdilution (CLSI)", "assay_type": "cell-based", "settings": "isolate 1081160; for MIC: single agent", "experimental": "(§1) Isolates were tested against varying concentrations of amphotericin B and C2′epiAmB (range, 0.06 to 4 mg/L) and combined with fluconazole (range, 0.12 to 128 mg/L) or ketoconazole (range 0.008 to 8 mg/L) or voriconazole (range, 0.004 to 4 mg/L) using a checkerboard grid design following the Clinical and Laboratory Standards Institute (CLSI) broth microdilution method (M23Ed5)."}, "C. glabrata 1046695": {"test_system": "C. glabrata 1046695", "experiment": "Checkerboard broth microdilution (CLSI)", "assay_type": "cell-based", "settings": "isolate 1046695; for MIC: single agent", "experimental": "as §1"}, "C. tropicalis 1046709": {"test_system": "C. tropicalis 1046709", "experiment": "Checkerboard broth microdilution (CLSI)", "assay_type": "cell-based", "settings": "isolate 1046709", "experimental": "as §1"}, "F. oxysporum SC 1087597": {"test_system": "F. oxysporum SC 1087597", "experiment": "Checkerboard broth microdilution (CLSI)", "assay_type": "cell-based", "settings": "isolate 1087597", "experimental": "as §1"}, "primary hREC": {"test_system": "primary hREC", "experiment": "Toxicity to primary hREC", "assay_type": "cell-based, human", "from_the_text": "This key discovery opened a path to the rational development of a non-toxic AmB variant. To probe its predicted role in sterol binding, the hydroxyl group was synthetically deleted at the C2′ position on the mycosamine appendage.\nIn each case, C2′epiAmB is non-toxic to human red blood cells, primary hREC, mice, and rats up to the highest dose tested."}, "[1]": {"test_system": "40 Aspergillus clinical isolates, including azole-resistant A. fumigatus, A. flavus, and A. terreus", "experiment": "Antifungal testing, Fungus Testing Laboratory UT-San Antonio", "assay_type": "cell-based", "from_the_text": "In vitro antifungal activity of C2′ epiAmB was compared with that of AmB against an extensive series of Candida and Aspergillus clinical isolates (FIG. 6A) at Evotec (Oxfordshire, UK). […] C2′epiAmB was also sent to the US national Fungus Testing Laboratory at UT-San Antonio for antifungal testing against an extended panel of especially challenging 40 Aspergillus clinical isolates, including azole-resistant A. fumigatus, A. flavus, and A. terreus (FIG. 6B)."}, "yeast cells": {"test_system": "yeast cells", "experiment": "Antifungal activity after ergosterol pre-complexation of the sponge", "assay_type": "cell-based", "settings": "sponge pre-complexed with ergosterol", "from_the_text": "Anderson, T. M. et al., Nat Chem Biol 2014, 10 (5), 400-6. […] Davis, S. A., et al., Nat Chem Biol 2015, 11 (7), 481-7. To test whether C2′epiAmB primarily kills cells via the same sterol sponge mechanism, the C2′epiAmB sponge was similarly pre-complexed with ergosterol. […] Thus, C2′epiAmB similarly kills yeast primarily via sterol binding, and, by extension, the new compounds targeted in this application are expected to have a similar barrier to fungal resistance that has been observed for the past 50+years with AmB."}, "C. albicans": {"test_system": "C. albicans", "experiment": "Murine model of invasive candidiasis", "assay_type": "in vivo, mice", "experimental": "Andes, D. et al., Antimicrobial agents and chemotherapy 2001, 45 (3), 922-6. In fact, the PD parameter that best correlates with outcome is Cmax-/MIC. The same was subsequently observed in a pulmonary model of invasive aspergillosis. Wiederhold, N. P. et al., Antimicrobial agents and chemotherapy 2006, 50 (2), 469-73.\nA clinical isolate of C. albicans (SN250) was grown and quantified on SDA. For 24 h before infection, the organism was subcultured at 35° C. on SDA slants. A 106CFU/ml inoculum was prepared by placing six fungal colonies into 5 ml of sterile, depyrogenated normal (0.9%) saline warmed to 35° C. Six week-old ICR/Swiss specific-pathogen-free female mice were obtained from Harlan Sprague Dawley (Madison, Wis.). The mice were weighed (23-27 g) and disseminated candidiasis was induced via tail vein injection of 100 μl of inoculum. AmB and C2′ epiAmB were reconstituted in their deoxycholate form with 1.0 ml of saline5% dextrose. Each animal in the treatment group was given a single 200-μl intravenous (IV) injection of reconstituted AmB and C2′epiAmB 2 h after infection. Doses were calculated in terms of mg of compound per kg of body weight. At 24 h after infection, three animals per experimental condition were killed by CO2 asphyxiation. The kidneys from each animal were removed and homogenized. The homogenate was diluted serially tenfold with […] and plated on SDA. […]"}},
  "note": "Read-outs that look alike come from different tables or passages of the source.",
  "data": [
    {"compound": "C[C@@H]1[C@H](O)[C@@H](C)/C=C/C=C/C=C/C=C/C=C/C=C/C=C/[C@H](OC2O[C@H](C)[C@@H](O)[C@H](N)[C@H]2O)CC2O[C@](O)(C[C@@H](O)C[C@@H](O)[C@H](O)CC[C@@H](O)C[C@@H](O)CC(=O)O[C@H]1C)C[C@H](O)[C@H]2C(=O)O", "note": "(stereo partly drawn) [C2′epiAmB, C2′epi amphotericin B]", "values": [
      {"measurement": "MIC", "setting": "C. auris 1081160; Candidozyma auris, read-out: MIC", "value": 2, "unit": "µg/mL"},
      {"measurement": "MIC", "setting": "C. auris 1081160", "value": 4, "unit": "µg/mL"},
      {"measurement": "MIC when added 1 log2 unit lower of azoles' MIC", "setting": "C. auris 1081160; with fluconazole", "value": 0.06, "unit": "mg/L"},
      {"measurement": "MIC when added 1 log2 unit lower of azoles' MIC", "setting": "C. auris 1081160; with ketoconazole", "value": 2, "unit": "mg/L"},
      {"measurement": "MIC when added 1 log2 unit lower of azoles' MIC", "setting": "C. auris 1081160; with voriconazole", "value": 2, "unit": "mg/L"},
      {"measurement": "MIC", "setting": "C. glabrata 1046695; Nakaseomyces glabratus, read-out: MIC", "value": 1, "unit": "µg/mL"},
      {"measurement": "MIC", "setting": "C. glabrata 1046695", "value": 2, "unit": "µg/mL"},
      {"measurement": "MIC when added 1 log2 unit lower of azoles' MIC", "setting": "C. glabrata 1046695; with fluconazole", "value": 2, "unit": "mg/L"},
      {"measurement": "MIC when added 1 log2 unit lower of azoles' MIC", "setting": "C. glabrata 1046695; with ketoconazole", "value": 1, "unit": "mg/L"},
      {"measurement": "MIC when added 1 log2 unit lower of azoles' MIC", "setting": "C. glabrata 1046695; with voriconazole", "value": 1, "unit": "mg/L"},
      {"measurement": "MIC", "setting": "C. tropicalis 1046709; Candida tropicalis, single agent", "value": 1, "unit": "µg/mL"},
      {"measurement": "MIC when added 1 log2 unit lower of azoles' MIC", "setting": "C. tropicalis 1046709; with fluconazole", "value": 1, "unit": "mg/L"},
      {"measurement": "MIC when added 1 log2 unit lower of azoles' MIC", "setting": "C. tropicalis 1046709; with ketoconazole", "value": 1, "unit": "mg/L"},
      {"measurement": "MIC when added 1 log2 unit lower of azoles' MIC", "setting": "C. tropicalis 1046709; with voriconazole", "value": 1, "unit": "mg/L"},
      {"measurement": "MIC", "setting": "F. oxysporum SC 1087597; Fusarium oxysporum, single agent", "value": "> 4", "unit": "µg/mL"},
      {"measurement": "MIC when added 1 log2 unit lower of azoles' MIC", "setting": "F. oxysporum SC 1087597; with ketoconazole", "value": 0.06, "unit": "mg/L"},
      {"measurement": "MIC when added 1 log2 unit lower of azoles' MIC", "setting": "F. oxysporum SC 1087597; with voriconazole", "value": ">4", "unit": "mg/L"},
      {"measurement": "toxicity to primary hREC", "setting": "primary hREC", "value": "non-toxic"},
      {"measurement": "less potent than AmB, average", "setting": "[1]; average across all 40 strains", "value": 5.6, "unit": "fold"},
      {"measurement": "less potent than AmB", "setting": "[1]; range over 40 Aspergillus clinical isolates", "value": "2-16 times"},
      {"measurement": "change of potency upon ergosterol pre-complexation", "setting": "yeast cells", "value": "same reduction in potency"},
      {"measurement": "fungal burden", "setting": "C. albicans; 16 mg/kg dose", "value": "outstanding reductions in fungal burden"},
      {"measurement": "efficacy", "setting": "C. albicans; neutropenic ICR/Swiss mice, deoxycholate complex, single injection 1, 4, 8, or 16 mg/kg", "value": "dose-dependent efficacy"}
    ]}
  ]
}
